Test results as given in US12129265B2, “Therapeutic agents and uses thereof” (Ankh Life Sciences Limited, priority 2020, dated 2024).
pIC50: −log10 of the molar value. Where two headings read alike, the source gives them in different places.

How the values were obtained:
Test in all cases: CellTiter-Glo in vitro cell proliferation assay, Example 8
RXF-393 cells = format: cell-based; conditions: Homo sapiens; RXF-393, Renal, 72 hours; read-out: Mean IC50
Method: (§1) In this Example, in vitro cell proliferation assays were performed using: (1) Human Myeloma tumor cell lines; (2) Human Lymphoma tumor cell lines; (3) Solid Human tumor cell lines; and (4) Parental, Lenalidomide resistant and Bortezomib resistant Jeko-1 Mantle cell Lymphoma tumor cell lines. The compounds tested were three diharmaline compounds, namely the 518B562 (or simply 562), 560, and 561 compounds. In addition, a monoharmaline product designated as 518F014 was also tested. This monoharmaline product had the following structure:
(§2) Each proliferation assay was carried out as follows. The test cells were plated in growth media using a 384-well microtiter plate at 50 μL volume. The cells were incubated for 24 hours at 37° C. in a humidified incubator. After 24 hours of incubation, the test compounds were added to the test wells in DSMO solvent, at concentrations ranging from 0.0075-100 μM. Control wells received equal volumes of DSMO, without compound. Following drugging, the cells were incubated for 72 hours at 37° C. in a humidified incubator. After this exposure, 100 μL of a 1:1 mixture of sterile water and CellTiter-Glo® reagent (Promega) was added to each well. The plates were then incubated for 60 minutes at room temperature, followed by recording the luminescence value of each well using a luminometer as a measure of cell proliferation.

SU-DHL-6 cells = format: cell-based; conditions: Homo sapiens; SU-DHL-6, Diffuse Large B-Cell Lymphoma, 72 hours; read-out: Mean IC50
Method: as §1, §2

[1] = test system: Jeko-1 Lenalidomide resistant cells; format: cell-based; conditions: Homo sapiens, Mantle Cell Lymphoma, 72 hours
Method: as §1, §2

N87 cells = format: cell-based; conditions: Homo sapiens; N87, Gastric, 72 hours; read-out: Mean IC50
Method: as §1, §2

[2] = test system: Jeko-1 Bortezomib resistant cells; format: cell-based; conditions: Homo sapiens, Mantle Cell Lymphoma, 72 hours
Method: as §1, §2

Jeko-1 Parental cells = format: cell-based; conditions: Homo sapiens, Mantle Cell Lymphoma, 72 hours
Method: as §1, §2

SU-DHL-4 cells = format: cell-based; conditions: Homo sapiens; SU-DHL-4, Diffuse Large B-Cell Lymphoma, 72 hours; read-out: Mean IC50
Method: as §1, §2

A498 cells = format: cell-based, Human; conditions: read-out: Mean IC50
Method in brief: (§3)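 Test compounds span 0.0075–100 μM, delivered in DMSO one day after seeding. Cultures are kept 72 h at 37 °C in humidified air before a CellTiter-Glo luminescent readout taken after 60 min at room temperature.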

A2780CP cells = format: cell-based, Human; conditions: Ovarian, read-out: Mean IC50
Method in brief: as §3

MDA-MB-468 cells = format: cell-based, Human; conditions: read-out: Mean IC50
Method in brief: as §3

A2780 cells = format: cell-based, Human; conditions: A2780, Ovarian, read-out: Mean IC50
Method in brief: as §3

KMM-1 cells = format: cell-based, Human; conditions: read-out: Mean IC50
Method in brief: as §3

FaDu cells = format: cell-based, Human; conditions: read-out: Mean IC50
Method in brief: as §3

MOLP-8 cells = format: cell-based, Human; conditions: read-out: Mean IC50
Method in brief: as §3

DOHH-2 cells = format: cell-based, Human; conditions: read-out: Mean IC50
Method in brief: as §3

BxPC-3 cells = format: cell-based, Human; conditions: BxPC-3, Pancreatic, read-out: Mean IC50
Method in brief: as §3

H929 cells = format: cell-based, Human; conditions: NCI-H929; H929, Human Myeloma, 72 hours; read-out: Mean IC50
Method in brief: as §3

H1650 (EGFR mut) cells = format: cell-based, Human; conditions: read-out: Mean IC50
Method in brief: as §3

MM.1s cells = format: cell-based, Human; conditions: MM1.S; MM.IS, Human Myeloma, 72 hours; read-out: Mean IC50
Method in brief: as §3

H1975 (EGFR mut) cells = format: cell-based, Human; conditions: read-out: Mean IC50
Method in brief: as §3

ASPC-1 cells = format: cell-based, Human; conditions: ASPC-1, Pancreatic, read-out: Mean IC50
Method in brief: as §3

AN3CA cells = format: cell-based, Human; conditions: Endometrial, read-out: Mean IC50
Method in brief: as §3

L363 cells = format: cell-based, Human; conditions: read-out: Mean IC50
Method in brief: as §3

KMS-27 cells = format: cell-based, Human; conditions: KMS-27, Human Myeloma, 72 hours; read-out: Mean IC50
Method in brief: as §3

JIM1 cells = format: cell-based, Human; conditions: read-out: Mean IC50
Method in brief: as §3

OCI-LY3 cells = format: cell-based, Human; conditions: read-out: Mean IC50
Method in brief: as §3

KMS-34 cells = format: cell-based, Human; conditions: read-out: Mean IC50
Method in brief: as §3

KMS-11 cells = format: cell-based, Human; conditions: KMS-11, Human Myeloma, 72 hours; read-out: Mean IC50
Method in brief: as §3

MIA PaCa-2 cells = format: cell-based, Human; conditions: MIA PaCa-2, Pancreatic, read-out: Mean IC50
Method in brief: as §3

HCC70 cells = format: cell-based, Human; conditions: read-out: Mean IC50
Method in brief: as §3

SiHA cells = format: cell-based, Human; conditions: read-out: Mean IC50
Method in brief: as §3

HEC-1a cells = format: cell-based, Human; conditions: Endometrial, read-out: Mean IC50
Method in brief: as §3

MDA-MB-231 cells = format: cell-based, Human; conditions: read-out: Mean IC50
Method in brief: as §3

KHM-1B cells = format: cell-based, Human; conditions: Human Myeloma, 72 hours, read-out: Mean IC50
Method in brief: as §3

RPMI-8226 cells = format: cell-based, Human; conditions: RPMI-8226, HMM
Method in brief: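 After 24 h plating, cells exposed to compound in DMSO over 0.0075–100 µM for 72 h at 37 °C. Viability read by CellTiter-Glo luminescence after 60 min at room temperature, relative to DMSO controls.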

[3] = Homo sapiens, Squamous, 72 hours

**Q.** With `COc1ccc2c(c1)=NC1=C(CCc3ccc(O)c(OC)c3)NCCC=21` [518F014] as the molecule, how does the pIC50 (RXF-393 cells) read?
**A.** 4.02

**Q.** What about the pIC50 (SU-DHL-6 cells) of the same molecule?
**A.** 4.30

**Q.** What about the pIC50 [1] of the same molecule?
**A.** 4.10

**Q.** And the pIC50 (N87 cells)?
**A.** 4.39

**Q.** What about the pIC50 [2] of the same molecule?
**A.** 4.06

**Q.** What about the pIC50 (Jeko-1 Parental cells) of the same molecule?
**A.** 4.05

**Q.** What about the pIC50 (SU-DHL-4 cells) of the same molecule?
**A.** 4.04

**Q.** And the pIC50 (A498 cells; Homo sapiens, A498, Renal, 72 hours)?
**A.** < 4.00

**Q.** What about the pIC50 (A2780CP cells; Homo sapiens, A2780C/P, 72 hours) of the same molecule?
**A.** < 4.00

**Q.** And the pIC50 (MDA-MB-468 cells; Homo sapiens, MDA-MB-468, Triple Negative Breast, 72 hours)?
**A.** < 4.00

**Q.** What about the pIC50 (A2780 cells; Homo sapiens, 72 hours) of the same molecule?
**A.** 4.15

**Q.** And the pIC50 (KMM-1 cells; KMM-1, Human Myeloma, 72 hours)?
**A.** 4.09

**Q.** And the pIC50 (FaDu cells; [3])?
**A.** < 4.00

**Q.** And the pIC50 (MOLP-8 cells; MOLP-8, Human Myeloma, 72 hours)?
**A.** 4.06

**Q.** And the pIC50 (DOHH-2 cells; Homo sapiens, DOHH-2, Diffuse Large B-Cell Lymphoma, 72 hours)?
**A.** < 4.00

**Q.** And the pIC50 (BxPC-3 cells; Homo sapiens, 72 hours)?
**A.** 4.01

**Q.** And the pIC50 (H929 cells)?
**A.** 4.10

**Q.** What about the pIC50 (H1650 (EGFR mut) cells; Homo sapiens, NCI-H1650, Non Small Cell Lung, 72 hours) of the same molecule?
**A.** < 4.00

**Q.** What about the pIC50 (MM.1s cells) of the same molecule?
**A.** < 4.00

**Q.** And the pIC50 (H1975 (EGFR mut) cells; Homo sapiens, NCI-H1975, Non Small Cell Lung, 72 hours)?
**A.** 4.10

**Q.** What about the pIC50 (ASPC-1 cells; Homo sapiens, ASPC1, 72 hours) of the same molecule?
**A.** 4.06

**Q.** And the pIC50 (AN3CA cells; Homo sapiens, AN3-CA, 72 hours)?
**A.** 4.06

**Q.** What about the pIC50 (L363 cells; L-363, L363, Human Myeloma, 72 hours) of the same molecule?
**A.** 4.00

**Q.** And the pIC50 (KMS-27 cells)?
**A.** 4.04

**Q.** And the pIC50 (JIM1 cells; JIM1, Human Myeloma, 72 hours)?
**A.** 4.07

**Q.** And the pIC50 (OCI-LY3 cells; Homo sapiens, OCI-LY3, Diffuse Large B-Cell Lymphoma, 72 hours)?
**A.** < 4.00

**Q.** And the pIC50 (KMS-34 cells; KMS-34, Human Myeloma, 72 hours)?
**A.** < 4.00

**Q.** And the pIC50 (KMS-11 cells)?
**A.** < 4.00

**Q.** And the pIC50 (MIA PaCa-2 cells; Homo sapiens, 72 hours)?
**A.** < 4.00

**Q.** And the pIC50 (HCC70 cells; Homo sapiens, HCC70, Triple Negative Breast, 72 hours)?
**A.** < 4.00

**Q.** What about the pIC50 (SiHA cells; [3]) of the same molecule?
**A.** < 4.00

**Q.** What about the pIC50 (HEC-1a cells; Homo sapiens, 72 hours) of the same molecule?
**A.** < 4.00

**Q.** And the pIC50 (MDA-MB-231 cells; Homo sapiens, MDA-MB-231, Triple Negative Breast, 72 hours)?
**A.** 4.11

**Q.** What about the pIC50 (KHM-1B cells) of the same molecule?
**A.** 4.03

**Q.** With `COc1ccc2c3c([nH]c2c1)C(CC(CC1=NCCc2c1[nH]c1cc(OC)ccc21)C1CCCCC1)=NCC3` [compound 30] as the molecule, how does the pIC50 (RPMI-8226 cells) read?
**A.** 5.37

**Q.** And the pIC50 (A498 cells; A498, RCC)?
**A.** 4.77

**Q.** And the pIC50 (A2780CP cells)?
**A.** 5.07

**Q.** What about the pIC50 (MDA-MB-468 cells; MDA-MB-468, TNBC) of the same molecule?
**A.** 5.13

**Q.** What about the pIC50 (A2780 cells) of the same molecule?
**A.** 5.19

**Q.** And the pIC50 (KMM-1 cells; KMM-1, HMCL-A)?
**A.** 5.24

**Q.** What about the pIC50 (FaDu cells; H&N - SC) of the same molecule?
**A.** 5.17

**Q.** What about the pIC50 (MOLP-8 cells; MOLP-8, MM IgD) of the same molecule?
**A.** 5.57

**Q.** What about the pIC50 (DOHH-2 cells; DoHH-2, GCB-DLBCL) of the same molecule?
**A.** 5.27

**Q.** What about the pIC50 (BxPC-3 cells) of the same molecule?
**A.** 5.11

**Q.** And the pIC50 (H1650 (EGFR mut) cells; NSCLC)?
**A.** 4.78

**Q.** And the pIC50 (H1975 (EGFR mut) cells; NSCLC)?
**A.** 4.94

**Q.** What about the pIC50 (ASPC-1 cells) of the same molecule?
**A.** 4.96

**Q.** What about the pIC50 (AN3CA cells) of the same molecule?
**A.** 5.30

**Q.** What about the pIC50 (L363 cells; L363, PCL/MM) of the same molecule?
**A.** 5.25

**Q.** What about the pIC50 (JIM1 cells; JIM1, HMCL) of the same molecule?
**A.** 5.15

**Q.** And the pIC50 (OCI-LY3 cells; OCI-LY3, ABC-DLBCL)?
**A.** 5.14

**Q.** And the pIC50 (KMS-34 cells; KMS-34, HMCL-B)?
**A.** 5.32

**Q.** What about the pIC50 (MIA PaCa-2 cells) of the same molecule?
**A.** 5.26

**Q.** And the pIC50 (HCC70 cells; HCC70, TNBC)?
**A.** 4.73

**Q.** And the pIC50 (SiHA cells; Cervical - SC)?
**A.** 4.75

**Q.** What about the pIC50 (HEC-1a cells) of the same molecule?
**A.** 5.00

**Q.** What about the pIC50 (MDA-MB-231 cells; MDA-MB-231, TNBC) of the same molecule?
**A.** 4.96
